Source: ChEMBL document CHEMBL3044943, “Nematicidal prenylated flavanones from Phyllanthus niruri” (2008)
Converted amounts (≈) assume the structure as drawn.

What was measured:
Rotylenchulus reniformis = test: Nematicidal activity against Rotylenchulus reniformis (reniform nematode) after 72 hr; format: functional
Meloidogyne incognita = test: Nematicidal activity against Meloidogyne incognita (root-knot nematode) second stage juveniles after 72 hr; format: functional

SMILES: CC(C)=CCc1cccc2c1OC(c1ccccc1)CC2=O (stereo not given)
- LC50 (Rotylenchulus reniformis): 103 µg/mL (≈ 352 µM)
- LC50 (Meloidogyne incognita): 70.9 µg/mL (≈ 242 µM)

SMILES: CC(C)=CCc1cccc2c1OC(c1ccc(O)cc1)CC2=O (stereo not given)
- LC50 (Rotylenchulus reniformis): 3.3 µg/mL (≈ 10.7 µM)
- LC50 (Meloidogyne incognita): 14.5 µg/mL (≈ 47 µM)

SMILES: CNC(=O)Oc1cccc2c1OC(C)(C)C2 [CARBOFURAN]
- LC50 (Rotylenchulus reniformis): 3.1 µg/mL (≈ 14 µM)
